Like-named read-outs stand apart in the source and are kept apart here.
Columns and labels:
[1] = test system: PMA-differentiated THP-1 cells; assay: Alamar Blue cell viability assay, THP-1; assay type: cell-based, human
Method: THP-1 cells were maintained in RPMI 1640 medium supplemented with 10% heat-inactivated FBS and 1% penicillin/streptomycin (complete culture medium) at 37° C. with 5% CO2 supplemented. Cell concentrations were adjusted to desired concentrations for each experiment by centrifugation at 500×g for 5 min and resuspended in complete culture medium with 100 nM of PMA. Cell concentration was adjusted to 5×10^5 cells/ml for all assays with the exception of 2.5×10^5 cells/ml were used for NF-κB nuclear translocation assay. Cells were seeded onto 96-, 24-, or 12-well plates and incubated for 48 to 72 h to allow for differentiation. Cells were washed with serum-free RPMI 1640 medium before each experiment to remove undifferentiated cells. […] Cells were seeded into tissue culture plates at 10% confluence and grown to 80% confluence within 72 h. For live cell microscopy, 1×10^5 cells/ml were seeded into 35 mm glass-bottom (MatTek) dishes 24 h prior to imaging. For luciferase assays, 1.2×10^5 cells/well were seeded into 24-well tissue culture-treated plates.
Following treatment, the relative cell viability was measured by Alamar Blue assay. For Alamar Blue assays, supernatants were replaced with culture medium containing 1× Alamar Blue reagent and incubated overnight. Cell viability was assessed by measuring relative fluorescent units (RFU) on the SpectraMax M2e microplate reader (Molecular Devices Inc., Sunnyvale, Calif., USA) at Ex 560 nm and Em 590 nm. The results were expressed as a percentage relative to LPS alone control cells. The effects of the vehicle control, DMSO, on cell viability were also assessed.
(§1) Dexamethasone is a synthetic glucocorticoid that suppresses LPS-induced pro-inflammatory cytokine expression and was used as a control (Abraham, Lawrence et al. 2006). Supernatants were collected for human cytokine ELISAs and the manufacturer's protocol was followed to assess the cytokine response. Cells remaining after the supernatant collection were tested for relative viability by Alamar Blue cytotoxicity assay as previously described.

TNFα = assay: Cytokine response by ELISA, TNFα; assay type: cell-based, human
Method: as §1

IL-1β = assay: Cytokine response by ELISA, IL-1β; assay type: cell-based, human; conditions: LPS-stimulated THP-1, ELISA
Method: as §1

NO production = assay: NO assay (Griess, nitrite), RAW 264.7; assay type: cell-based, murine; conditions: LPS-stimulated RAW264.7, 24 h
Method: Nitrite concentration in culture media of cells exposed to the indicated treatments was determined as an estimate of NO production with Griess reagent using a nitrate/nitrite colorimetric assay kit (Cayman Chemical Company, USA) according to the manufacturer's protocol.

ERK, JNK, p38 = assay: Western blot, MAPK phosphorylation, THP-1; conditions: LPS 15 min
Method: U0126 is a compound that inhibits MEK1/2 and was used as positive control for ERK phosphorylation inhibition (Hotokezaka, Sakai et al. 2002). Cells were lysed with radio-immunoprecipitation assay (RIPA) lysis buffer that contained a protease and phosphatase inhibitor cocktail. Cell lysates were then tested for protein concentration using a BCA protein assay and diluted with RIPA lysis buffer to normalize protein concentration in all samples. Lysates were mixed with sample loading buffer containing bromophenol blue, glycerol, SDS, and 2-mercaptoethanol. The separated proteins were then transferred onto a nitrocellulose membrane and blocked with 5% BSA in IX Tris-buffered saline with 0.1% Tween-20 for 1 h. The blots were incubated with primary antibodies at 4° C. overnight followed by incubation with HRP-conjugated secondary antibodies for 2 h at 22° C. The membranes were developed by addition of ECL substrate and images were collected with a ChemiDoc XRS+ system chemiluminescence imager (Bio-Rad, Hercules, Calif., USA). Western blot band intensity was quantified using Image Lab software (Bio-Rad, Hercules, Calif., USA). […]

[2] = test system: Trypanosoma brucei brucei 427 cells; assay: T. brucei culture and assay (PrestoBlue); assay type: cell-based; conditions: Trypanosoma brucei; Table 1; mean of 2(+) independent trials; read-out: IC50 T. brucei
[3] = test system: C. albicans (ATCC strain 90028); assay: Antifungal microdilution broth assay (PrestoBlue), C. albicans; assay type: cell-based, Candida albicans; conditions: Candida albicans
Procedure, shortened: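 Inoculum of 1.5×10^3 cells/mL in RPMI-MOPS (0.165 M MOPS, pH 7.0), exposed to aurones for 24 h at 35 °C. Growth read by PrestoBlue (10% final) fluorescence at ex 560/em 590 nm.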

[4] = test system: Cryptococcus neoformans (Cn); assay: CLSI micro-dilution inhibition / MIC, Cryptococcus neoformans; assay type: cell-based; conditions: running text b175, read-out: MIC against Cryptococcus neoformans
Method: C. neoformans (strain 1199s) was prepared following CLSI guidelines for the organism (CLSI, Reference Method for Broth Dilution Antifungal Susceptibility Testing of Yeasts, Approved Standard-Third. Edition, Clinical Laboratory Standards Institute, Wayne, Pa., 2008).
The A27-M2 CLSI standard micro-dilution method was used to screen an aurone library (MTSU Department of Chemistry) for inhibition of Cryptococcus neoformans (Cn). Each aurone was screened in triplicate. […] Toxicity assays were conducted on human THP1 macrophages and L6 rat fibroblasts.
The inhibition of Cn strains and C. gattii strains by Aurone 9051 (also referred to as “Aurone X”) was characterized in different medias (including RPMI 1640 (Standard), RPMI 1640+MOPS, Asparagine media, minimal media, or yeast extract peptone dextrose (YPD) media), against other serotypes and strains, and at different cell concentrations. Synergy of the compounds with current drugs was characterized, and a growth curve experiment was conducted.

Structure (SMILES)	THP-1 cell viability (Alamar Blue) ([1]; 100 μM with LPS)	THP-1 cell viability (Alamar Blue) ([1]; 20, 40, 80 μM with LPS for 4 h)	Average % Viability (4 h with LPS) ([1]; THP-1 cells, 20 μM, 4 h with LPS, mean ± SD) [%]	inhibition at 20 µM (TNFα; Homo sapiens, LPS-stimulated THP-1 cells, 20 μM, mean ± SD, read-out: Average % TNF-α Inhibition) [%]	suppression of TNFα expression (TNFα; LPS-stimulated THP-1, ELISA, FIG. 9A, concentration not printed with the value (20-80 μM tested)) [%]	reduction of IL-1β expression (IL-1β) [%]	production of NO (nitrite in supernatants) (NO production)	phosphorylation of ERK, JNK, or p38 (ERK, JNK, p38)	IC50 [2] [µM]	IC50 ([3]; ATCC90028, Table 5, read-out: IC50 C. albicans) [µM]	IC50 ([3]; ATCC90028, across C. albicans, C. glabrata, and C. tropicalis, read-out: IC50 values against Candida species) [µM]	MIC [4] [µM]
O=C1/C(=C/c2ccc(CO)o2)Oc2ccccc21 [aurone 1]	less than 90%	no effect on cell viability	96.0 ± 0.6	25.3 ± 6.1	93.8	98	significantly reduced	no statistically significant effect				
COc1ccc(/C=C2\Oc3c(ccc(O)c3O)C2=O)cc1O [Aurone 1009, (Z)-6,7-dihydroxy-2-(3-hydroxy-4-methoxybenzylidene)benzofuran-3(2H)-one]									18.8	16	10 to 18	30
